Source: patent US11332438B2, “Creatine prodrugs, compositions and methods of use thereof” (Ultragenyx Pharmaceutical Inc., priority 2017, dated 2022)

Tests used:
[1] = Liver microsome stability, mouse; format: in vitro ADME; conditions: liver microsomes, read-out: Microsome Stability Mouse t1/2
Protocol: (§1) The stabilities of creatine prodrugs can be evaluated in one or more in vitro systems using a variety of preparations following methods known in the art. Experimental conditions useful for the in vitro studies are described in Table 1. Prodrug is added to each preparation in triplicate. […]
(§2) Protocol for Microsomal Stability:
(§3) For reference compound, a 500 μM spiking solution was prepared: add 10 μL of 10 mM DMSO stock solution into 190 μL ACN. […] For test compound, a 5 mM spiking solution was prepared: add 10 μL of 10 mM DMSO stock solution into 10 μL ACN. […] NADPH stock solution (6 mM) was prepared by dissolving NADPH into buffer 0.1 M Potassium Phosphate buffer, 1.0 mM EDTA, pH 7.4. […] For 0-min, 135 μL of ACN containing IS was added to the wells of 0-min plate and then 15 μL of NADPH stock solution (6 mM) was added. 15 μL of NADPH stock solution (6 mM) was added to the samples designated as 0-, 5-, 10-, 20-, 30-min, 60-min; 15 μL of buffer 0.1 M Potassium Phosphate buffer, 1.0 mM EDTA, pH 7.4, was added to the samples designated as 60-min without NADPH. At 5-min, 10-min, 20-min, and 30-min, 60-min 135 μL of ACN containing IS was added to the wells of corresponding plates, respectively, to stop the reaction. […] 50 μL of the supernatant from each well was transferred into a 96-well sample plate containing 50 μL of ultra pure water (Millipore, ZMQS50FOI) and analyzed by LC/MS.

[2] = Liver microsome stability, human; format: in vitro ADME; conditions: liver microsomes, read-out: Microsome Stability Human t1/2
Protocol: as §1, §2, §3

[3] = Plasma stability, human plasma; format: in vitro ADME; conditions: for half-life: 37 °C, read-out: Plasma Stability Human t1/2
Protocol: as §1
(§4) Protocol for plasma stability for early screen macrocycles (Method A):
(§5) Frozen plasma was thawed by placing at 37° C. quickly and centrifuged at 3,000 rpm for 8 minutes to remove clots. Then the supernatant was pipetted and pooled as the plasma to be used in the experiment. The plasma was placed on ice until used. The test compounds and reference compounds spiking solution was prepared as a 2.5 mM test compounds spiking solution A: Add 20 μL of 10 mM test compounds stock solution to 60 μL DMSO. 0.1 mM Spiking solution B was prepared: Add 40 μL of spiking solution A to 960 μL of […] Sodium phosphate buffer with 0.5% BSA. […] For 0-min, 400 μL of ACN containing IS was added to the wells of 0-min plate and then 90 μL of plasma was added. […] 50 μL of the supernatant was transferred from each well into a 96-well sample plate containing 120 μL of ultra pure water (Millipore, ZMQS50F01) and analyzed by LC/MS.
(§6) Protocol for plasma stability (Method B):
(§7) The frozen plasma was thawed in a 37° C. water bath and then, if needed, adjusted to pH=7.4 then preheated in a 37° C. incubator. The test article was dissolved in 10% DMSO/water and spiked into plasma pre-plated into 96 well plates at a final concentration of 1 μM. Discrete incubations were performed at 37° C. and included 5 time points: t=0, 2, 5, 15, and 30 min. Samples were then crashed with 4× volume, ice cold 20% water/80% acetonitrile and spun at 4000 g for 10 mins. The supernatant was dried down and reconstituted with water and analyzed by LC-MS/MS. The half life in minute was calculated.

[4] = Chemical stability in simulated gastric fluid (SGF) without pepsin; format: physicochemical; conditions: 50 μM prodrug
Protocol: (§8) Chemical stability of creatine prodrugs in phosphate buffered saline (PBS), simulated intestinal fluid (SIF) without pancreatin, simulated gastric fluid (SGF) without pepsin were determined by LC-UV, LC-CAD, LC-UV-CAD or LC-MS/MS as appropriate. Creatine prodrugs of the present disclosure (50 μM) were incubated at 37° C. according to described protocols and prodrug levels were compared between t=0, t=15, t=60, and t=120 mins by peak area ratio to determine the percentage remained at t=120 mins (2 h).
(§9) Protocol for PBS, SIF and SGF stability for screening:
(§10) Prodrugs (50 μM) were incubated in PBS, FaSSIF (Biorelevant) or FaSSGF (Biorelevant) at 37° C.

[5] = Plasma stability, mouse plasma; format: in vitro ADME; conditions: for half-life: 37 °C, read-out: Plasma Stability Mouse t1/2
Protocol: as §1, §4, §5, §6, §7

[6] = Chemical stability in phosphate buffered saline (PBS); format: physicochemical; conditions: 50 μM prodrug
Protocol: as §8, §9, §10

half-life at 10 μM ([1]; pH 7.4, Table 2A)	half-life at 10 μM ([2]; pH 7.4, Table 2A)	half-life ([3]; Table 2A)	Chemical Stability SGF, no enzyme % T0 at 2 hours at 37 °C. ([4]; Table 2A)	half-life ([5]; Table 2A)	Chemical Stability PBS % T0 at 2 hours at 37 °C. ([6]; Table 2A)	SMILES	also measured
> 145 min	> 145 min	> 180 min	99%	> 180 min	101%	[2H]C([2H])([2H])N(CC(=O)[O-])C(=N)NC(=O)CCCCCCC.[Na+] [Compound 38]	
< 5 min	< 5 min	> 180 min	99%	33 min	0%	[2H]C([2H])([2H])N(CCO)C(=N)NC(=O)CCCCCCCCCC [Compound 9]	
						Cl.[2H]C([2H])([2H])N(CC(=O)OC(C)(C)C(F)(F)F)C(=N)NC(=O)CCCCCC [Compound 55]	Chemical Stability SGF, no enzyme % T0 at 2 hours at 37 °C. ([4]; Table 2B): 94%; Chemical Stability PBS % T0 at 2 hours at 37 °C. ([6]; Table 2B): 97%
> 145 min	110 min	> 180 min		> 180 min		[2H]C([2H])([2H])N(CC(=O)[O-])C(=N)NC(=O)CCCCCCCCCC.[Na+] [Compound 32]	
						Cl.[2H]C([2H])([2H])N(CC(=O)OC(C)C(C)(C)C)C(=N)NC(=O)CCCCCC (stereo not shown) [Compound 53]	Chemical Stability SGF, no enzyme % T0 at 2 hours at 37 °C. ([4]; Table 2B): 91%; Chemical Stability PBS % T0 at 2 hours at 37 °C. ([6]; Table 2B): 64%
						Cl.[2H]C([2H])([2H])N1CC(=O)O[C@@H](C)CCCCCCCCCC(=O)NC1=N [Compound PP, (S)-5-imino-17-methyl-4-(methyl-d3)-1-oxa-4,6-diazacycloheptadecane-2,7-dione Hydrochloride]	half-life ([3]; Table 2C, macrocycles): 8 min; half-life ([5]; Table 2C, macrocycles): 1.1 min
> 145 min	> 145 min	> 180 min	72%	> 180 min	89%	[2H]C([2H])([2H])N(CC(=O)[O-])C(=N)NC(=O)CCCC/C=C\CCCCCCCCCCC.[Na+] [Compound 25]	
> 145 min	102 min	> 180 min	99%	> 180 min	106%	[2H]C([2H])([2H])N(CC(=O)[O-])C(=N)NC(=O)CCCCCCCC.[Na+] [Compound 36]	
5 min	16 min	169 min	32%	< 5 min	55%	[2H]C([2H])([2H])N(CC(=O)OCC)/C(=N\C(=O)OC(C)(C)C)NC(=O)CCCCCCCCCC [Compound 47]	
> 145 min	114 min	> 180 min		> 180 min		[2H]C([2H])([2H])N(CC(=O)[O-])C(=N)NC(=O)CCCCCCC.[Li+] [Compound 37]	
						Cl.[2H]C([2H])([2H])N1CC(=O)OC(CC)CCCCCCCCCC(=O)NC1=N (stereo not shown) [Compound L, 17-ethyl-5-imino-4-trideuteriomethyl-1-oxa-4,6-diazacycloheptadecane-2,7-dione Hydrochloric Acid Salt]	half-life at 10 μM ([1]; pH 7.4, Table 2C): 0.6 min; half-life at 10 μM ([2]; pH 7.4, Table 2C): 1.6 min; half-life ([3]; Table 2C, macrocycles): 34 min; half-life ([5]; Table 2C, macrocycles): 3 min
						[2H]C([2H])([2H])N1CC(=O)OCCCCCCCCCCCC(=O)NC1=N [Compound QQ, 5-imino-4-trideuteriomethyl-1-oxa-4,6-diazacyclooctadecane-2,7-dione]	half-life at 10 μM ([1]; pH 7.4, Table 2C): 4 min; half-life at 10 μM ([2]; pH 7.4, Table 2C): 9 min; Chemical Stability SGF, no enzyme % T0 at 2 hours at 37 °C. ([4]; Table 2C): 79%; Chemical Stability PBS % T0 at 2 hours at 37 °C. ([6]; Table 2C): 85%
< 5 min	24 min	> 180 min	62%	47 min	87%	[2H]C([2H])([2H])N1CC(=O)N=C1NC(=O)CCCCCCCCCC [Compound 49]	
						O=CO.[2H]C([2H])([2H])N1CC(=O)OCCCCCCCCCC(=O)NC1=N [Compound SS, 5-imino-4-trideuteriomethyl-1-oxa-4,6-diazacyclohexadecane-2,7-dione Formic Acid Salt]	half-life ([3]; Table 2C, macrocycles): > 90 min; Chemical Stability SGF, no enzyme % T0 at 2 hours at 37 °C. ([4]; Table 2C): 85%; Chemical Stability PBS % T0 at 2 hours at 37 °C. ([6]; Table 2C): 0%
> 145 min	59 min	> 180 min	98%	> 180 min	98%	[2H]C([2H])([2H])N(CC(=O)[O-])C(=N)NC(=O)CCCCCCCCCCC.[Na+] [Compound 31]	
						Cl.[2H]C([2H])([2H])N1CC(=O)OC(C)CCCCCCCCCC(=O)NC1=N (stereo not shown) [Compound K, 5-imino-4-trideuteriomethylguanidino-17-dimethyl-1-oxa-4,6-diazacycloheptadecane-2,7-dione Dihydrochloride]	half-life ([3]; Table 2C, macrocycles): 13 min; half-life ([5]; Table 2C, macrocycles): 2 min
						O=CO.[2H]C([2H])([2H])N1CC(=O)OCCCCCCCC(=O)NC1=N [Compound BB, 5-imino-4-trideuteriomethylguanidino-1-oxa-4,6-diazacyclotetradecane-2,7-dione Formate]	Plasma Stability Human t1/2 [3]: 9 min; Plasma Stability Mouse t1/2 [5]: <2 min
						[2H]C([2H])([2H])N(CC(=O)OC(C)(C)C(C)(C)O)C(=N)NC(=O)CCCCCC [Compound 63]	half-life at 10 μM ([1]; pH 7.4, Table 2B): < 5 min; half-life at 10 μM ([2]; pH 7.4, Table 2B): < 5 min; half-life ([3]; Table 2B): < 5 min; Chemical Stability SGF, no enzyme % T0 at 2 hours at 37 °C. ([4]; Table 2B): 101%; half-life ([5]; Table 2B): < 5 min; Chemical Stability PBS % T0 at 2 hours at 37 °C. ([6]; Table 2B): 58%
						[2H]C([2H])([2H])N1CC(=O)OCCCCCCCCC(=O)NC1=N [Compound DD, 5-imino-4-trideuteriomethyl-1-oxa-4,6-diazacyclopentadecane-2,7-dione]	half-life ([3]; Table 2C, macrocycles): 8.3 min; half-life ([5]; Table 2C, macrocycles): < 2 min
						[2H]C([2H])([2H])N(CC(=O)[O-])C(=N)NC(=O)CCCCCCCCCO.[Na+] [Compound 58]	half-life at 10 μM ([1]; pH 7.4, Table 2B): > 90 min; half-life at 10 μM ([2]; pH 7.4, Table 2B): > 90 min; half-life ([3]; Table 2B): > 180 min; half-life ([5]; Table 2B): > 180 min
						Cl.[2H]C([2H])([2H])N(CC(=O)OC(C)(C)C(F)(F)F)C(=N)NC(=O)CCCCCCCCCC [Compound 59]	Chemical Stability SGF, no enzyme % T0 at 2 hours at 37 °C. ([4]; Table 2B): 30%; Chemical Stability PBS % T0 at 2 hours at 37 °C. ([6]; Table 2B): 101%
123 min	> 180 min	> 180 min		> 180 min		[2H]C([2H])([2H])N(CC(=O)O)C(=NC(=O)OC(C)(C)C)NC(=O)CCCCCCCCCC [Compound 34]	
			98%		97%	Cl.[2H]C([2H])([2H])N(CC(=O)OCc1oc(=O)oc1C)C(=N)NC(=O)CCCCCCCCCC [Compound 48]	
